The supplement of paper PMC11061612

Experiments:
Assay in all cases: combination Emax (second highest fraction inhibited in the dose matrix, 72 h); higher = more inhibition; extreme values may be limits of the assay
[1] = system: 697 (B-Lymphoblastic Leukemia)
Procedure, shortened: (§1)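 Cell lines grown in DMEM/F12 or RPMI with 10% FBS were plated in 1536-well plates and held 24 hours at 37°C, 5% CO2 before 72 hours of exposure to two-drug dose matrices, with DMSO typically at 0.2%. CellTiter-Glo 2.0 luminescence gave viability, which was converted to inhibition. Vehicle wells were set to 0 and blank wells to 1. Combination Emax is the second-highest inhibition in the matrix, and Bliss excess is the observed combination effect minus the expected EA + EB − EA·EB, where EA and EB are the single-agent effects.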

[2] = system: C3A (Hepatocellular Carcinoma)
Procedure, shortened: as §1

CAL-78 (Chondrosarcoma) = system: CAL-78 (Chondrosarcoma)
Procedure, shortened: as §1

[3] = system: CFPAC-1 (Pancreatic Carcinoma)
Procedure, shortened: as §1

[4] = system: EM-2 (Chronic Myelogenous Leukemia)
Procedure, shortened: as §1

[5] = system: HCC2157 (Breast Carcinoma)
Procedure, shortened: as §1

IGR-1 (Melanoma) = system: IGR-1 (Melanoma)
Procedure, shortened: as §1

[6] = system: IHH-4 (Thyroid Gland Carcinoma)
Procedure, shortened: as §1

J82 (Bladder Carcinoma) = system: J82 (Bladder Carcinoma)
Procedure, shortened: as §1

[7] = system: JiyoyeP-2003 (Burkitt's Lymphoma)
Procedure, shortened: as §1

[8] = system: KARPAS-620 (Plasma Cell Myeloma)
Procedure, shortened: as §1

[9] = system: KATOIII (Gastric Carcinoma)
Procedure, shortened: as §1

[10] = system: NCI-H1694 (Small Cell Lung Carcinoma)
Procedure, shortened: as §1

RH-1 (Ewing's Sarcoma) = system: RH-1 (Ewing's Sarcoma)
Procedure, shortened: as §1

SK-N-FI (Neuroblastoma) = system: SK-N-FI (Neuroblastoma)
Procedure, shortened: as §1

SN12C (Kidney Carcinoma) = system: SN12C (Kidney Carcinoma)
Procedure, shortened: as §1

[11] = system: SNU-C5 (Colorectal Carcinoma)
Procedure, shortened: as §1

[12] = system: SW756 (Cervical Carcinoma)
Procedure, shortened: as §1

[13] = system: TGBC24TKB (Biliary Tract Carcinoma)
Procedure, shortened: as §1

[14] = system: U-266 (Plasma Cell Myeloma)
Procedure, shortened: as §1

SMILES	combination Emax [1]	combination Emax [2]	combination Emax (CAL-78 (Chondrosarcoma))	combination Emax [3]	combination Emax [4]	combination Emax [5]	combination Emax (IGR-1 (Melanoma))	combination Emax [6]	combination Emax (J82 (Bladder Carcinoma))	combination Emax [7]	combination Emax [8]	combination Emax [9]	combination Emax [10]	combination Emax (RH-1 (Ewing's Sarcoma))	combination Emax (SK-N-FI (Neuroblastoma))	combination Emax (SN12C (Kidney Carcinoma))	combination Emax [11]	combination Emax [12]	combination Emax [13]	combination Emax [14]
CN(C)CCCOc1ccc(-c2ccc3ncc4c(c3c2)n(C2CCOCC2)c(=O)n4C)cn1 [AZD0156] + C[C@@H]1COCCN1C2=NC(=NC(=C2)C3(CC3)[S@](=N)(=O)C)C4=C5C=CNC5=NC=C4 [AZD6738] (first compound max 1 µM, 7x7, partner max 10 µM)	1	0.584	0.41	0.434	0.949	0.955	0.523	0.907	0.396	0.955	0.644	0.519	0.711	0.938	0.793	0.114	0.807	0.322	0.796	0.523
COc1cc2ncnc(Nc3ccc(F)c(Cl)c3)c2cc1OCCCN1CCOCC1 [Gefitinib] + CC(C)n1c(=O)n(C)c2cnc3cc(F)c(-c4ccc(OCCCN5CCCCC5)nc4)cc3c21 [AZD1390] (first compound max 10 µM, 7x7, partner max 0.3 µM)	0.422	0.377	0.194	0.304	0.174	0.723	0.635	0.0356	0.139	0.119	0.141	0.353	0.19	0.188	0.175	0.21	0.0876	0.1	0.348	0.124
COc1cccc2c1C(=O)c1c(O)c3c(c(O)c1C2=O)C[C@@](O)(C(=O)CO)C[C@@H]3O[C@H]1C[C@H](N)[C@H](O)[C@H](C)O1 [Doxorubicin] + Cc1cc2ncnn2cc1Nc1ncc2c(n1)n(C1CCOCC1)c(=O)n2C [AZD7648] (first compound max 1 µM, 7x7, partner max 10 µM)	1	0.485	0.542	0.586	0.978	0.925	0.697	0.951	0.41	0.981	0.681	0.319	0.921	1	0.373	0.642	0.724	0.514	0.318	0.612
CN(CCO)CC[C@H](CSc1ccccc1)Nc1ccc(S(=O)(=O)NC(=O)c2ccc(N3CCC([C@@H](O)c4ccccc4-c4ccc(Cl)cc4)CC3)cc2)cc1S(=O)(=O)C(F)(F)F [AZD4320] + Cc1cc2ncnn2cc1Nc1ncc2c(n1)n(C1CCOCC1)c(=O)n2C [AZD7648] (first compound max 1 µM, 7x7, partner max 10 µM)	1	0.248	0.46	0.134	0.99	0.959	0.33	0.193	0.0607	0.639	1	0.151	0.76	0.438	0.201	0.145	0.225	0.112	0.682	0.622
Cc1c2c(nn1C)CSCc1cc(n(C)n1)CSc1cc(c3ccccc3c1)OCCCc1c(C(=O)O)n(C)c3c-2c(Cl)ccc13 [AZD5991] + C[C@@H](Nc1cc(F)cc(F)c1)c1cc(C(=O)N(C)C)cc2c(=O)cc(N3CCOCC3)oc12 [AZD8186] (first compound max 1 µM, 7x7, partner max 3 µM)	0.978	0.292	0.875	0.294	0.259	0.987	0.28	0.234	0.234	0.718	1	0.175	0.953	0.827	0.565	0.246	0.254	0.217	0.249	0.894
Cn1cnc2c(F)c(Nc3ccc(Br)cc3Cl)c(C(=O)NOCCO)cc21 [Selumetinib] + CC(C)n1c(=O)n(C)c2cnc3cc(F)c(-c4ccc(OCCCN5CCCCC5)nc4)cc3c21 [AZD1390] (first compound max 10 µM, 7x7, partner max 0.3 µM)	0.373	0.412	0.136	0.202	0.545	0.238	0.296	0.436	0.787	0.191	0.472	0.475	0.206	0.048	0.435	0.237	0.351	0.229	0.828	0.532
